Reference: ChEMBL document CHEMBL4000254, “Sodium Channel Blockers” (ACS Med Chem Lett, 2017)

What follows are molecules tested against Sodium channel protein type 9 subunit alpha (Homo sapiens, UniProt Q15858) (assay: Inhibition of human Nav1.7 expressed in HEK293 cells assessed as inhibition of peak current after 50 secs by automated patch clamp assay).
Chain of Sodium channel protein type 9 subunit alpha (Q15858 whole entry): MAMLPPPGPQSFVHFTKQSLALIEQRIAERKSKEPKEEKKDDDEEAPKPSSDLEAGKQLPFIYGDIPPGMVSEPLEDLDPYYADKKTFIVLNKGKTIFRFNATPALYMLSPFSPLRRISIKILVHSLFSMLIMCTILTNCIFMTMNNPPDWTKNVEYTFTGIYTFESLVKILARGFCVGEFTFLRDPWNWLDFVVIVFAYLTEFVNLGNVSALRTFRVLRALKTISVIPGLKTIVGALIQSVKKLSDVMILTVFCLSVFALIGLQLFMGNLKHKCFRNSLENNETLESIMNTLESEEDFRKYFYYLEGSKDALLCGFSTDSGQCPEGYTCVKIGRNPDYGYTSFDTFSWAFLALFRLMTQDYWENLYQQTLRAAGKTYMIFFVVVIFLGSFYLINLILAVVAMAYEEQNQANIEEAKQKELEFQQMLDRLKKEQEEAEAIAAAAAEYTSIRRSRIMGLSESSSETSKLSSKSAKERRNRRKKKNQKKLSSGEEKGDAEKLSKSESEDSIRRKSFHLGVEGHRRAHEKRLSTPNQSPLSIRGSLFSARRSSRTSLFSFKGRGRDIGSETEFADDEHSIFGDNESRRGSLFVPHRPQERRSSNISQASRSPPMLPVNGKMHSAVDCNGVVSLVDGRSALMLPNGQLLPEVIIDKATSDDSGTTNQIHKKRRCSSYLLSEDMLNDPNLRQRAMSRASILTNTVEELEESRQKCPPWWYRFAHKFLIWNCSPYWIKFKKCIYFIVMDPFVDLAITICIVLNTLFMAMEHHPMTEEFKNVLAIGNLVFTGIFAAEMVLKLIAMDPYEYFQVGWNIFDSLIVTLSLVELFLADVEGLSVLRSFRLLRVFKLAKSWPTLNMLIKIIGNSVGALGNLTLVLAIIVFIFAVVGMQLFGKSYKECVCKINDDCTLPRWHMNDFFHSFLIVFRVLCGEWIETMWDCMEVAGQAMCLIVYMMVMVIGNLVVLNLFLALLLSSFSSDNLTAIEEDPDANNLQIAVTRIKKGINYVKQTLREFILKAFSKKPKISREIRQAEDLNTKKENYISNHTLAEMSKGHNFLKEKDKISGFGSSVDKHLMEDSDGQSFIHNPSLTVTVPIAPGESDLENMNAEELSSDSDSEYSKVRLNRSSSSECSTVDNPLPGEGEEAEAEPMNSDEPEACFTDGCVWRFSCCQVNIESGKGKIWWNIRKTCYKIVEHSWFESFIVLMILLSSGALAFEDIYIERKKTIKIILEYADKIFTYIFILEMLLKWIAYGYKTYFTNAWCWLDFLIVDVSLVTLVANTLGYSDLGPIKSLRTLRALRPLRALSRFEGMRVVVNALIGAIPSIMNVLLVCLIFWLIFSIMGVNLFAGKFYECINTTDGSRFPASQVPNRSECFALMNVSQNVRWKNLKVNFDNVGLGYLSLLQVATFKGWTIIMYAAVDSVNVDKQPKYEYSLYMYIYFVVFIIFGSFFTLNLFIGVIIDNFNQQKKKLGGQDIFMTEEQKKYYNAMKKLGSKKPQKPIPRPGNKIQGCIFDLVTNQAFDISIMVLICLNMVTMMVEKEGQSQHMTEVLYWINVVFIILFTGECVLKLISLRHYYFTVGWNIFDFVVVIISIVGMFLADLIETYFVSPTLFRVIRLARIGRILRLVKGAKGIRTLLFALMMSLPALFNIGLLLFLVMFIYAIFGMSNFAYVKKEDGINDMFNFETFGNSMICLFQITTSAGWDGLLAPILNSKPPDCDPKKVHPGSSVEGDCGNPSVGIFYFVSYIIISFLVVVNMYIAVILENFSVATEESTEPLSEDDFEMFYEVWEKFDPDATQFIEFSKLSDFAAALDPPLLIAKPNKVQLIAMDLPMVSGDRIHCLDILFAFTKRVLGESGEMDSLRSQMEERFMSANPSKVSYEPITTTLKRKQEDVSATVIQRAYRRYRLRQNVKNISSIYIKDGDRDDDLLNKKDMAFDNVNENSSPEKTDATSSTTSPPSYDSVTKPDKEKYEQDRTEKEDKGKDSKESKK
Assay type: cell-based
Work on `CS(=O)(=O)NC(=O)c1cc(Cl)c(-n2cc(Cl)c3cc(-c4ccc(F)cc4Cl)cnc32)cc1F` yielded an IC50 of 40 nM.
`COc1cccc(-c2ccc3c(c2)c(F)nn3-c2cc(F)c(C(=O)NS(C)(=O)=O)cc2Cl)c1` was tested, and the IC50 was 80 nM.
With `CS(=O)(=O)NC(=O)c1cc(Cl)c(-n2nc(Cl)c3cc(OCc4ccc5ccccc5c4)ccc32)cc1F` the IC50 was 7.6 nM.
`CS(=O)(=O)NC(=O)c1cc(Cl)c(-n2ncc3cc(-c4cccc(Cl)c4)ccc32)cc1F` showed an IC50 of 70 nM.
`Cc1cccc(-c2ccc3c(c2)c(F)nn3-c2cc(F)c(C(=O)NS(C)(=O)=O)cc2Cl)c1` gave an IC50 of 80 nM.
Molecule `CS(=O)(=O)NC(=O)c1cc(Cl)c(-n2nc(F)c3cc(-c4cccc(Cl)c4)ccc32)cc1F` has an IC50 of 40 nM.
`Cc1ccccc1-c1ccc2c(c1)c(F)nn2-c1cc(F)c(C(=O)NS(C)(=O)=O)cc1Cl` gave an IC50 of 60 nM.
Molecule `CS(=O)(=O)NC(=O)c1cc(Cl)c(-n2cc(Cl)c3cc(-c4ccc(F)cc4F)cnc32)cc1F` has an IC50 of 80 nM.
`CS(=O)(=O)NC(=O)c1cc(Cl)c(-n2cc(F)c3cc(-c4ccc(C(F)(F)F)cc4)cnc32)cc1F` was tested, and the IC50 was 50 nM.
Work on `CS(=O)(=O)NC(=O)c1cc(Cl)c(-n2cc(Cl)c3cc(-c4ccc(C(F)(F)F)cc4)cnc32)cc1F` yielded an IC50 of 50 nM.
For `Cc1cccc(-c2ccc3c(c2)c(Cl)nn3-c2cc(F)c(C(=O)NS(C)(=O)=O)cc2Cl)c1`, the IC50 was 39 nM.
`Cc1cc(F)ccc1-c1cnc2c(c1)c(Cl)cn2-c1cc(F)c(C(=O)NS(C)(=O)=O)cc1Cl` was tested, and the IC50 was 90 nM.
`CS(=O)(=O)NC(=O)c1cc(Cl)c(-n2nc(Cl)c3cc(-c4cc(F)c(F)c(F)c4)ccc32)cc1F` was tested, and the IC50 was 20 nM.
`CS(=O)(=O)NC(=O)c1cc(Cl)c(-n2nc(Cl)c3cc(-c4cccc(Cl)c4F)ccc32)cc1F` showed an IC50 of 70 nM.
In the case of `CS(=O)(=O)NC(=O)c1cc(Cl)c(-n2nc(Cl)c3cc(-c4ccc(OC(F)(F)F)cc4)ccc32)cc1F`, the IC50 is reported as 80 nM.
`CS(=O)(=O)NC(=O)c1cc(Cl)c(-n2cc(F)c3cc(-c4cccc(Cl)c4F)cnc32)cc1F` gave an IC50 of 40 nM.
Work on `CS(=O)(=O)NC(=O)c1cc(Cl)c(-n2nc(Cl)c3cc(-c4ccc(Cl)c(F)c4)ccc32)cc1F` yielded an IC50 of 80 nM.
With `CS(=O)(=O)NC(=O)c1cc(Cl)c(-n2nc(F)c3cc(-c4cccc(F)c4)ccc32)cc1F` the IC50 was 90 nM.
Molecule `CS(=O)(=O)NC(=O)c1cc(Cl)c(-n2cc(F)c3cc(-c4cccc(Cl)c4)cnc32)cc1F` has an IC50 of 50 nM.
`CS(=O)(=O)NC(=O)c1cc(Cl)c(-n2nc(Cl)c3cc(-c4cc(F)ccc4F)ccc32)cc1F` was tested, and the IC50 was 90 nM.
Work on `CS(=O)(=O)NC(=O)c1cc(Cl)c(-n2ncc3cc(-c4ccc(Cl)cc4F)ccc32)cc1F` yielded an IC50 of 70 nM.
